Where a name gives a salt, the structure may show the parent alone.
Tests used:
Assay type in all cases: cell-based
[1] = test system: human leukocytes (basophils); test: Inhibition of histamine release from human leukocytes (basophils), Procedure A; details: Leukocyte, 1 h, rabbit anti-human IgE, 37° C., 60 minutes, (d) No response detected at highest dose indicated, read-out: In Vitro Inhibition of Histamine Release IC50, Procedure A
Description: A. Procedure for Determining Inhibition of Histamine Release from Human Leukocytes (Basophils) 1. Separation of Leukocytes: A modification of the method of L. Lichtenstein and A. Osler, J. Exp. Med. 120, 507 (1964) is used. Heparinized human blood (80-100 ml) is mixed with 20 ml of saline (0.2%) containing 0.6 gm of dextrose and 1.2 gm dextran in propylene centrifuge tubes. The mixture is kept at ambient temperature for 60-90 minutes to allow the separation of erythrocytes from the platelet-leukocyte-rich supernate. The supernate is removed and centrifuged for 8 minutes at 110×g in cold. The leukocyte pellet is washed twice with Tris buffer and finally suspended in 150-180 ml Tris-ACM buffer at 1-2×10^6 cells/ml. 2. Reaction Mixture: The reaction is carried out in 12×75 mm plastic tubes at a total volume of […]. The reaction medium includes 0.05 ml rabbit anti-human IgE (the antigen), 0.2 ml of the test compound in water at concentrations ranging from 10-100 μM, and 0.1 ml of the leukocyte suspension. The reaction mixture is incubated in a 37° C. shaking water bath for 60 minutes. Upon completion of the reaction, the tubes are centrifuged and the supernatants collected. The protein is removed from the supernatants by precipitation with 0.2 ml of 8% perchloric acid. 3. Histamine Assay: Histamine release is measured by the automated fluorometric method of W. Siraganian and W. Hook in Chapter 102 of the Manual of Clinical Immunology, 2nd Edition, edited by R. Rose and H. Friedman, published by the American Society for Microbiology, Washington, D.C. 1980. Percent inhibition is calculated as follows: [formula] The concentration which causes a 50 percent inhibition (IC50) of histamine release is interpolated from a plot of percent inhibition versus logarithm of drug concentration.

[2] = test system: guinea pig basophils; test: Inhibition of histamine release from guinea pig basophils, Procedure C; details: Cavia porcellus, 1 h, ovalbumin-sensitized, 37° C., 60 minutes, read-out: In Vitro Inhibition of Histamine Release IC50, Procedure C
Description: C. Procedure for Determining Inhibition of Histamine Release from Guinea Pig Basophils 1. In Vivo Sensitization: Male Hartley guinea pigs (200-300 gms) are immunized on day 0 with two 0.05 ml intradermal injections of 200 μg ovalbumin. Sensitized basophils are available between days 13-25 post-sensitization. This mode of sensitization favors IgE response. 2. Separation of Leukocytes: The method of Lett-Brown et al., Int. Arch. Allergy, Appl. Immun. 64, 241 (1981) is used. Animals are anesthetized with ether and are bled via cardiac puncture with plastic syringes containing sufficient EDTA to provide a final concentration of 10 mM. One part of 3% gelatin in saline at 37° C. is mixed with two parts of blood in a 16×150 mm tube. The cells are allowed to sediment at a 30° angle for 45 minutes in a 37° C. water bath. The leukocyte-rich plasma is collected and centrifuged at 150×g for 30 minutes at room temperature. The pelleted cells are washed in Hepes-buffered saline (HG) containing 4 mM EDTA and resuspended in Hepes-buffered saline containing Mg^++ and Ca^++ (HGCM) at 4-5×10^6 cells/ml. 3. Reaction Mixture: The reaction is carried out in 12×75 mm plastic tubes and a total volume of 1.2 ml which includes 0.5 ml of antigen, 0.2 ml of drug solution at concentrations ranging from 10-1000 μM and 0.5 ml of prewashed cell suspension. The reaction mixture is incubated in a 37° C. shaking water bath for 60 minutes. Upon completion of the reaction, the tubes are centrifuged and the supernatants collected. The protein is removed from the supernatants by precipitation with 0.2 ml of 8% perchloric acid. 4. Histamine Assay: Histamine release is measured by the automated fluorometric method of Siraganian, supra. The concentration which causes a 50 percent inhibition of Histamine release is computed as in Part A.

[3] = test system: rat peritoneal mast cells; test: Inhibition of histamine release from rat peritoneal mast cells, Procedure B; details: Mast cell, 1 h, sheep anti-rat IgE or ovalbumin, 37° C., 60 minutes, (d) No response detected at highest dose indicated, read-out: In Vitro Inhibition of Histamine Release IC50, Procedure B
Description: B. Procedure for Determining Inhibition of Histamine Release from Rat Peritoneal Mast Cells 1. Harvest of Peritoneal Mast Cells: After the rats are sacrificed with ether, 20 ml of Minimum Essential Medium (MEM) containing 20 units/ml heparin is injected into the peritoneum. The abdomen is massaged for one minute and the lavage fluid collected. The peritoneal cells are centrifuged at 1800 rpm for 8 minutes in cold. After two washes with Tris A buffer, the cells are resuspended in Tris ACM buffer at 2-4×10^6 cells/ml. 2. Reaction Mixture: The reaction is carried out in 12×75 mm plastic tubes at a total volume of 1.25 ml. The reaction mixture includes 0.5 ml (10-1000 μg) sheep anti-rat IgE or ovalbumin, 0.2 ml of the test compound in water at concentrations ranging from 10-1000 μM, […] phosphatidylserine solution (20-60 μg to each tube), and 0.5 ml of cell suspension. The reaction mixture is incubated in a 37° C. shaking water bath for 60 minutes. Upon completion of the reaction, the tubes are centrifuged and the supernatants collected. The protein is removed from the supernatants by precipitation with 0.2 ml of 8% perchloric acid. 3. Histamine Assay: Histamine release is measured by the automated fluorometric method of Siraganian, supra. The concentration which causes a 50% inhibition (IC50) of histamine release is computed as in Part A.

| IC50 [1] | IC50 [3] | Structure (SMILES) | IC50 [2] |
| --- | --- | --- | --- |
| 1000 µM |  | CC1C(C)N(Cc2ccc(Cl)cc2)C(C)C(C)N1CCCN1C(C)C(C)N(Cc2ccc(Cl)cc2)C(C)C1C (stereo not shown) [Example 32, 1,3-bis[4-(4-chlorobenzyl)-2,3,5,6-tetramethyl-1-piperazinyl]propane tetrahydrochloride] |  |
| 45 µM |  | Fc1ccc(CN2CCN(CCCN3CCN(Cc4ccc(F)cc4)CC3)CC2)cc1 [Example 5, 1,3-Bis[4-(4-fluorobenzyl)-1-piperazinyl]propane tetrahydrochloride] | 760 µM |
| ~1000 µM |  | OC(CN1CCN(CCCN2CCN(CC(O)c3ccccc3)CC2)CC1)c1ccccc1 (stereo not shown) [Example 13, 1,3-Bis[4-(2-phenyl-2-hydroxyethyl)-1-piperazinyl]propane tetrahydrochloride] |  |
| 17 µM | 10 µM | O=C(CC(=O)N1CCN(Cc2ccc(Cl)cc2)CC1)N1CCN(Cc2ccc(Cl)cc2)CC1 [Example 15, 1,3-Bis[4-(4-chlorobenzyl)-1-piperazinyl]-1,3-dioxopropane dihydrochloride monohydrate] | 49 µM |
| 11 µM | 2 µM | Clc1ccc(CN2CCN(CCCN3CCN(Cc4ccc(Cl)cc4)CC3)CC2)cc1 [Example 1, 1,3-Bis[4-(4-chlorobenzyl)-1-piperazinyl]propane tetrahydrochloride] | 35 µM |
| 3 µM |  | Clc1ccc(CN2CCN(CCCN3CCN(Cc4ccc(Cl)c(Cl)c4)CC3)CC2)cc1Cl [Example 20, 1,3-Bis[4-(3,4-dichlorobenzyl)-1-piperazinyl]-propane tetrahydrochloride] |  |
| 12 µM | 80 µM | OC(CN1CCN(Cc2ccc(Cl)cc2)CC1)CN1CCN(Cc2ccc(Cl)cc2)CC1 [Example 2, 1,3-Bis[4-(4-chlorobenzyl)-1-piperazinyl]-2-hydroxypropane] | 23 µM |
| 24 µM |  | Clc1ccc(CN2CCN(CCCCN3CCN(Cc4ccc(Cl)cc4)CC3)CC2)cc1 [Example 3, 1,4-Bis[4-(4-chlorobenzyl)-1-piperazinyl]butane hemihydrate] |  |
| 20 µM |  | Cc1ccc(CN2CCN(CCCN3CCN(Cc4ccc(C)cc4)CC3)CC2)cc1 [Example 22, 1,3-Bis[4-(4-methylbenzyl)-1-piperazinyl]-propane tetrahydrochloride] |  |
| 14 µM |  | Clc1cccc(CN2CCN(CCCN3CCN(Cc4cccc(Cl)c4)CC3)CC2)c1 [Example 23, 1,3-Bis[4-(3-chlorobenzyl)-1-piperazinyl]propane dihydrochloride monohydrate] |  |
| 20 µM |  | OC(CN1CCN(CCCN2CCN(Cc3ccc(Cl)cc3)CC2)CC1)c1ccccc1 (stereo not shown) [Example 11, 1-[4-(4-Chlorobenzyl)-1-piperazinyl]-3-[4-(2-hydroxy-2-phenylethyl)-1-piperazinyl]propane tetrahydrochloride] |  |
| 6 µM |  | FC(F)(F)c1cc(CN2CCN(CCCN3CCN(Cc4ccc(Cl)c(C(F)(F)F)c4)CC3)CC2)ccc1Cl [Example 25, 1,3-Bis[4-(4-chloro-3-trifluoromethylbenzyl)-1-piperazinyl]propane tetrahydrochloride] |  |
| 12 µM |  | O=C(CCN1CCN(Cc2ccc(Cl)cc2)CC1)N1CCN(Cc2ccc(Cl)cc2)CC1 [Example 6, 1,3-Bis[4-(4-chloro-benzyl)-1-piperazinyl]-1-oxo-propane trihydrochloride] |  |
| 3 µM |  | O=C(CN1CCN(CCCN2CCN(Cc3ccc(Cl)cc3)CC2)CC1)c1ccccc1 [Example 10, 1-[4-(4-Chlorobenzyl)-1-piperazinyl]-3-(4-phenacyl-1-piperazinyl)propane tetrahydrochloride monohydrate] |  |
| 4 µM |  | CC(CCN1CCN(Cc2ccc(Cl)cc2)CC1)N1CCN(Cc2ccc(Cl)cc2)CC1 (stereo not shown) [Example 7, 1,3-Bis[4-(4-chlorobenzyl)-1-piperazinyl]-1-methylpropane tetrahydrochloride hemihydrate] |  |
| 53 µM |  | c1ccc(CN2CCN(CCCN3CCN(Cc4ccccc4)CC3)CC2)cc1 [Example 4, 1,3-Bis(4-benzyl-1-piperazinyl)propane tetrahydrochloride] |  |
| 800 µM |  | O=C(CN1CCN(CCCN2CCN(CC(=O)c3ccccc3)CC2)CC1)c1ccccc1 [Example 12, 1,3-Bis(4-phenacyl-1-piperazinyl)propane tetrahydrochloride monohydrate] |  |
| > 1000 µM | > 100 µM | Clc1ccc(C(c2ccccc2)N2CCN(CCCN3CCN(C(c4ccccc4)c4ccc(Cl)cc4)CC3)CC2)cc1 (stereo not shown) [Example 8, 1,3-Bis[4-(4-chlorobenzhydryl)-1-piperazinyl]-propane dihydrochloride dihydrate] |  |
| 80 µM |  | CC(c1ccccc1)N1CCN(CCCN2CCN(C(C)c3ccccc3)CC2)CC1 (stereo not shown) [Example 17, 1,3-Bis[4-(1-phenylethyl)-1-piperazinyl]-propane tetrahydrochloride] |  |
| 28 µM |  | c1ccc(CCN2CCN(CCCN3CCN(CCc4ccccc4)CC3)CC2)cc1 [Example 14, 1,3-Bis(4-phenethyl-1-piperazinyl)propane dihydrochloride dihydrate] |  |
| 14 µM |  | Clc1ccccc1CN1CCN(CCCN2CCN(Cc3ccccc3Cl)CC2)CC1 [Example 21, 1,3-Bis[4-(2-chlorobenzyl)-1-piperazinyl]propane tetrahydrochloride] |  |
| 3 µM |  | Brc1ccc(CN2CCN(CCCN3CCN(Cc4ccc(Br)cc4)CC3)CC2)cc1 [Example 27, 1,3-Bis[4-(4-bromobenzyl)-1-piperazinyl]propane tetrahydrochloride] |  |
| > 1000 µM |  | Oc1ccc(CN2CCN(CCCN3CCN(Cc4ccc(O)cc4)CC3)CC2)cc1 [Example 26, 1,3-Bis[4-(4-hydroxybenzyl)-1-piperazinyl]propane] |  |
| 2 µM |  | Clc1ccc(CCCCN2CCN(CCCN3CCN(CCCCc4ccc(Cl)cc4)CC3)CC2)cc1 [Example 29, 1,3-Bis[4-(4-{4-chlorophenyl}butyl)-1-piperazinyl]propane tetrahydrochloride] |  |

| Structure (SMILES) | IC50 [1] | IC50 [3] | IC50 [2] |
| --- | --- | --- | --- |
| CCCCOc1ccc(CN2CCN(CCCN3CCN(Cc4ccc(OCCCC)cc4)CC3)CC2)cc1 [Example 31, 1,3-Bis[4-(4-butoxybenzyl)-1-piperazinyl]propane tetrahydrochloride] | 4 µM |  |  |
| CC(=O)Oc1ccc(CN2CCN(CCCN3CCN(Cc4ccc(OC(C)=O)cc4)CC3)CC2)cc1 [Example 30, 1,3-Bis[4-(4-acetoxybenzyl)-1-piperazinyl]propane] | > 1000 µM |  |  |
